≈ marks a conversion by molar mass, not a printed value. Calls of active or inactive are those of the source. The rule behind the calls is not given here.

The term logP denotes the decadic logarithm of the partition coefficient of the neutral form, usually between octanol and water. The low end stands for a more hydrophilic compound, the high end for a more lipophilic compound.

In series [1] the test system is Bacillus subtilis. Description: Antibacterial activity against Bacillus subtilis MTCC 441 after 24 hrs by serial dilution method.
For series [2], the system named is Pseudomonas aeruginosa. Put plainly: Antibacterial activity against Pseudomonas aeruginosa MTCC 7952 after 24 hrs by serial dilution method relative to 11,12-Diphenyl-11a,12-dihydro-11H-indeno[2,1-c][1,5]benzothiazepine. It is filed as functional.
For series [3], the system named is Pseudomonas aeruginosa. Description: Antibacterial activity against Pseudomonas aeruginosa MTCC 7952 after 24 hrs by serial dilution method. It counts as functional. Conditions: for MIC: Pseudomonas aeruginosa, MTCC 7952, 24 h.
The nature of series [4]: Octanol-water partition coefficient, log P of the compound. It counts as physicochemical.
Series [5] relates to Escherichia coli. Description: Antibacterial activity against Escherichia coli MTCC 42 after 24 hrs by serial dilution method relative to 11,12-Diphenyl-11a,12-dihydro-11H-indeno[2,1-c][1,5]benzothiazepine. It is filed as functional.
The test system of series [6] is Candida albicans. Description: Antifungal activity against Candida albicans MTCC 183 after 72 hrs by serial dilution method. It is filed as functional. The settings on record: for MIC: Candida albicans, MTCC 183, 72 h.
Series [7] concerns Candida albicans. Put plainly: Antifungal activity against Candida albicans MTCC 183 after 72 hrs by serial dilution method relative to 11,12-Diphenyl-11a,12-dihydro-11H-indeno[2,1-c][1,5]benzothiazepine. It counts as functional.
For series [8], the system named is Escherichia coli. Put plainly: Antibacterial activity against Escherichia coli MTCC 42 after 24 hrs by serial dilution method. Conditions: for MIC: Escherichia coli, MTCC 42, 24 h. It counts as functional.
Series [9] concerns Staphylococcus aureus. Description: Antibacterial activity against Staphylococcus aureus MTCC 7443 after 24 hrs by serial dilution method. It counts as functional. Conditions: for MIC: Staphylococcus aureus, MTCC 7443, 24 h.
The subject of series [10] is Staphylococcus aureus. Description: Antibacterial activity against Staphylococcus aureus MTCC 7443 after 24 hrs by serial dilution method relative to 11,12-Diphenyl-11a,12-dihydro-11H-indeno[2,1-c][1,5]benzothiazepine. It is filed as functional.
Series [11] concerns Aspergillus fumigatus. Put plainly: Antifungal activity against Aspergillus fumigatus MTCC 2550 after 72 hrs by serial dilution method relative to 11,12-Diphenyl-11a,12-dihydro-11H-indeno[2,1-c][1,5]benzothiazepine. It counts as functional.
Series [12] deals with Aspergillus fumigatus. Put plainly: Antifungal activity against Aspergillus fumigatus MTCC 2550 after 72 hrs by serial dilution method. It is filed as functional. The settings on record: for MIC: Aspergillus fumigatus, MTCC 2550, 72 h.
Series [13] relates to Bacillus subtilis.
Series [14] concerns Bacillus subtilis. Put plainly: Antibacterial activity against Bacillus subtilis MTCC 441 after 24 hrs by serial dilution method relative to 11,12-Diphenyl-11a,12-dihydro-11H-indeno[2,1-c][1,5]benzothiazepine. It counts as functional.
The subject of series [15] is Bacillus subtilis. Put plainly: microbe, parasite or virus in culture. Conditions: MTCC 441, 24 h.

With `Clc1ccc2c(c1)SC(c1ccccc1)C1C(=N2)c2ccccc2C1c1ccccc1` (stereo not given), the outcome with Bacillus subtilis [1] was inactive. The Activity turned out to be 7.91% in the series with Pseudomonas aeruginosa [2]; 88.53% with Escherichia coli [5]; 53.95% in the series on Candida albicans [7]; 53.95% with Staphylococcus aureus [10]; 76.99% in the series with Aspergillus fumigatus [11]. For the same compound, the “-logMIC” value in the series on Pseudomonas aeruginosa [3] is 1.24; with Candida albicans [6], 1.55; with Escherichia coli [8], 1.85; in the series with Staphylococcus aureus [9], 1.55; with Aspergillus fumigatus [12] it was 1.55. The MIC in the series with Pseudomonas aeruginosa [3] came out at 57 µM (≈ 25 µg/mL); in the series with Candida albicans [6] it was 28.5 µM (≈ 12.5 µg/mL); against Escherichia coli [8] it was 14.2 µM (≈ 6.22 µg/mL); against Staphylococcus aureus [9] it was 28.5 µM (≈ 12.5 µg/mL); with Aspergillus fumigatus [12] it was 28.5 µM (≈ 12.5 µg/mL). Further, the logP in series [4] came out at 7.48.

For the compound `Clc1ccc(C2Sc3cc(Cl)ccc3N=C3c4ccccc4C(c4ccccc4)C32)cc1` (stereo not given), the outcome in the series with Bacillus subtilis [1] was inactive. For the same compound, the Activity with Pseudomonas aeruginosa [2] was -70.92%; in the series with Escherichia coli [5] it was 89.34%; in the series with Candida albicans [7], 78.67%; in the series with Staphylococcus aureus [10], 14.53%; in the series with Aspergillus fumigatus [11], 94.67%. The “-logMIC” value worked out at 0.98 with Pseudomonas aeruginosa [3]; 1.88 in the series on Candida albicans [6]; 1.88 with Escherichia coli [8]; 1.28 in the series on Staphylococcus aureus [9]; 2.18 in the series on Aspergillus fumigatus [12]. The MIC against Pseudomonas aeruginosa [3] amounted to 106 µM (≈ 50 µg/mL); against Candida albicans [6], 13.2 µM (≈ 6.24 µg/mL); against Escherichia coli [8], 13.2 µM (≈ 6.24 µg/mL); with Staphylococcus aureus [9], 52.9 µM (≈ 25 µg/mL); against Aspergillus fumigatus [12], 6.6 µM (≈ 3.12 µg/mL). Besides, the logP in [4] stood at 8.

Turning to `COc1ccc(C2Sc3cc(Cl)ccc3N=C3c4ccccc4C(c4ccccc4)C32)cc1` (stereo not given), the Activity in the series with Pseudomonas aeruginosa [2] stood at 89.33%; in the series on Bacillus subtilis [14] it was 13.73%; in the series with Escherichia coli [5] it was 78.45%; with Candida albicans [7], 78.51%; in the series on Staphylococcus aureus [10], 78.51%; in the series with Aspergillus fumigatus [11], 78.45%. In addition, the “-logMIC” value with Pseudomonas aeruginosa [3] amounted to 2.18; with Bacillus subtilis [13], 1.27; with Candida albicans [6], 1.88; with Escherichia coli [8], 1.57; with Staphylococcus aureus [9] it was 1.88; with Aspergillus fumigatus [12] it was 1.57. The MIC came to 6.6 µM (≈ 3.09 µg/mL) with Pseudomonas aeruginosa [3]; 13.3 µM (≈ 6.22 µg/mL) in the series with Candida albicans [6]; 26.7 µM (≈ 12.5 µg/mL) in the series with Escherichia coli [8]; 13.3 µM (≈ 6.22 µg/mL) against Staphylococcus aureus [9]; 53.4 µM (≈ 25 µg/mL) against Bacillus subtilis [15]; 26.7 µM (≈ 12.5 µg/mL) against Aspergillus fumigatus [12]. Besides, the logP in series [4] was found to be 7.23.

For the compound `COc1ccc(C2Sc3cc(OC)ccc3N=C3c4ccccc4C(c4ccccc4)C32)cc1` (stereo not given), the Activity is -74.15% in the series on Pseudomonas aeruginosa [2]; 12.92% in the series on Bacillus subtilis [14]; 78.28% in the series with Escherichia coli [5]; 78.35% in the series on Candida albicans [7]; 89.17% with Staphylococcus aureus [10]; 89.18% in the series with Aspergillus fumigatus [11]. Moreover, the “-logMIC” value in the series with Pseudomonas aeruginosa [3] is listed as 0.97; in the series with Bacillus subtilis [13] it was 1.27; with Candida albicans [6] it was 1.87; in the series on Escherichia coli [8], 1.57; in the series on Staphylococcus aureus [9] it was 2.17; in the series on Aspergillus fumigatus [12], 1.87. Moreover, the MIC was 108 µM (≈ 50 µg/mL) in the series with Pseudomonas aeruginosa [3]; 13.4 µM (≈ 6.21 µg/mL) against Candida albicans [6]; 26.9 µM (≈ 12.5 µg/mL) in the series on Escherichia coli [8]; 6.7 µM (≈ 3.11 µg/mL) in the series with Staphylococcus aureus [9]; 53.9 µM (≈ 25 µg/mL) against Bacillus subtilis [15]; 13.4 µM (≈ 6.21 µg/mL) against Aspergillus fumigatus [12]. In series [4], this compound registered a logP of 6.46.

`Clc1ccc(C2Sc3ccccc3N=C3c4ccccc4C(c4ccccc4)C32)cc1` (stereo not given): the Activity in the series on Pseudomonas aeruginosa [2] is listed as -84.32%; with Bacillus subtilis [14], 88.52%; in the series with Escherichia coli [5] it was 53.99%; with Candida albicans [7] it was -84.32%; in the series with Staphylococcus aureus [10], 53.95%; with Aspergillus fumigatus [11] it was 53.99%. Moreover, the “-logMIC” value with Pseudomonas aeruginosa [3] turned out to be 0.94; in the series on Bacillus subtilis [13], 2.15; with Candida albicans [6], 0.94; in the series on Escherichia coli [8] it was 1.24; in the series with Staphylococcus aureus [9], 1.55; with Aspergillus fumigatus [12], 1.24. The MIC in the series on Pseudomonas aeruginosa [3] is 114 µM (≈ 50 µg/mL); against Candida albicans [6] it was 114 µM (≈ 50 µg/mL); in the series on Escherichia coli [8], 57 µM (≈ 25 µg/mL); against Staphylococcus aureus [9], 28.5 µM (≈ 12.5 µg/mL); against Bacillus subtilis [15], 7.1 µM (≈ 3.11 µg/mL); in the series on Aspergillus fumigatus [12], 57 µM (≈ 25 µg/mL). For the same compound, in series [4], the logP was found to be 7.48.

For the compound `COc1ccc2c(c1)SC(c1ccccc1)C1C(=N2)c2ccccc2C1c1ccccc1` (stereo not given), the Activity in the series on Pseudomonas aeruginosa [2] is listed as 6.94%; in the series on Bacillus subtilis [14], 6.94%; in the series with Escherichia coli [5] it was 76.75%; with Candida albicans [7], -86.26%; with Staphylococcus aureus [10], 76.73%; in the series with Aspergillus fumigatus [11], 53.51%. For the same compound, the “-logMIC” value in the series on Pseudomonas aeruginosa [3] came to 1.24; with Bacillus subtilis [13], 1.24; in the series with Candida albicans [6], 0.94; with Escherichia coli [8], 1.54; with Staphylococcus aureus [9] it was 1.84; in the series on Aspergillus fumigatus [12], 1.24. Further, the MIC in the series with Pseudomonas aeruginosa [3] turned out to be 57.6 µM (≈ 25 µg/mL); against Candida albicans [6], 115 µM (≈ 50 µg/mL); against Escherichia coli [8] it was 28.8 µM (≈ 12.5 µg/mL); in the series with Staphylococcus aureus [9] it was 14.4 µM (≈ 6.24 µg/mL); against Bacillus subtilis [15], 57.6 µM (≈ 25 µg/mL); in the series on Aspergillus fumigatus [12], 57.6 µM (≈ 25 µg/mL). Also, in [4], the logP was determined as 6.71.

For the origin of these results see ChEMBL document CHEMBL2203136, “Synthesis, characterization, biological evaluation and QSAR studies of 11-p-substituted phenyl-12-phenyl-11a,12-dihydro-11H-indeno[2,1-c][1,5]benzothiazepines as potential antimicrobial agents” (Eur J Med Chem, 2012).
